Each compound was assayed against T1, MDR1 (Homo sapiens, UniProt P08183) (assay: MDR1 membrane permeability test). Details: pH 7.4, efflux ratio (ER), Papp B to A / A to B, human MDR1-expressing LLC-PK1 cells, read-out: MDR1 substrate screening 1 μM (MDRSUB1)/Ratio (NUMBER).
T1 construct: expressed in transfected cells
Assay type: in vitro ADME
Procedure: MDR1 Membrane Permeability Test
When MDR1 is expressed in excess in LLC-PK1 cell, which is a polar cell, MDR1 is localized in apical membrane (A), thus promoting transcellular transport from the basement membrane side (B) toward direction A. When a ratio to the transcellular transport in the opposite direction is taken and a ratio to a control cell in which a mock vector has been introduced is further taken, an efflux ratio of MDR1 to simple diffusion (corrected efflux ratio) is calculated. Similarly, when a brain/plasma concentration ratio in Mdr1(−/−) mouse is divided by a brain/plasma concentration ratio in wild-type mouse, an efflux ratio of Mdr1 to simple diffusion in BBB (Kp, brain ratio, higher value means lower central nervous system permeability) is calculated. Adachi Y. et al. (Reference 1) has reported a positive correlation between corrected efflux ratio and Kp, brain ratio (FIG. 5(C)), and efflux ratio in MDR1 expressing cell and Kp, brain ratio (FIG. 5(B)).
To confirm the central nervous system permeability of the compounds of the present invention, a MDR1 membrane permeability test was performed by the following method.
Human MDR1-expressing LLC-PK1 cells were cultured according to the report of Takeuchi et al. (Reference 2). Human MDR1-expressing LLC-PK1 cells were cultured in 10% fetal bovine serum (Invitrogen), 500 μg/ml G418 (Invitrogen), 150 ng/ml colchicine-containing M199 medium (Invitrogen) under 5% CO2 conditions at 37° C.
Transcellular transport was performed according to the report of Sugimoto et al. (Reference 3). The cells were cultured for 3 days on HTS Transwell (registered trademark) 96 well permeable support (pore size 0.4 μm, 0.143 cm^2 surface area, Corning Life Sciences) having polyethylene terephthalate membrane on which the cells had been seeded at 3.45×10^4 cells/well. After preincubation in M199 medium (containing 10 mmol/L HEPES, 1% BSA, pH 7.4) for 30 min, a drug solution (10 μmol/L digoxin, 200 μmol/L LY, […]) dissolved in M199 medium was added to the apical side or basolateral side of the Transwell by 75 or 250 μL each and the cells were cultured under 5% CO2 conditions at 37° C. After 1 hr, the sample was collected from the side opposite to the side where the drug solution was added, and the concentration of the test compound was measured by LC-MS/MS. As an internal standard substance, 100 ng/mL alprenolol and diclofenac were used. The analysis conditions were as follows.
Papp, A to B and Papp, B to A (apparent permeability) were calculated from the formula (1), and the efflux ratio (ER) was calculated from the formula (2).

T1 sequence (P08183 whole entry): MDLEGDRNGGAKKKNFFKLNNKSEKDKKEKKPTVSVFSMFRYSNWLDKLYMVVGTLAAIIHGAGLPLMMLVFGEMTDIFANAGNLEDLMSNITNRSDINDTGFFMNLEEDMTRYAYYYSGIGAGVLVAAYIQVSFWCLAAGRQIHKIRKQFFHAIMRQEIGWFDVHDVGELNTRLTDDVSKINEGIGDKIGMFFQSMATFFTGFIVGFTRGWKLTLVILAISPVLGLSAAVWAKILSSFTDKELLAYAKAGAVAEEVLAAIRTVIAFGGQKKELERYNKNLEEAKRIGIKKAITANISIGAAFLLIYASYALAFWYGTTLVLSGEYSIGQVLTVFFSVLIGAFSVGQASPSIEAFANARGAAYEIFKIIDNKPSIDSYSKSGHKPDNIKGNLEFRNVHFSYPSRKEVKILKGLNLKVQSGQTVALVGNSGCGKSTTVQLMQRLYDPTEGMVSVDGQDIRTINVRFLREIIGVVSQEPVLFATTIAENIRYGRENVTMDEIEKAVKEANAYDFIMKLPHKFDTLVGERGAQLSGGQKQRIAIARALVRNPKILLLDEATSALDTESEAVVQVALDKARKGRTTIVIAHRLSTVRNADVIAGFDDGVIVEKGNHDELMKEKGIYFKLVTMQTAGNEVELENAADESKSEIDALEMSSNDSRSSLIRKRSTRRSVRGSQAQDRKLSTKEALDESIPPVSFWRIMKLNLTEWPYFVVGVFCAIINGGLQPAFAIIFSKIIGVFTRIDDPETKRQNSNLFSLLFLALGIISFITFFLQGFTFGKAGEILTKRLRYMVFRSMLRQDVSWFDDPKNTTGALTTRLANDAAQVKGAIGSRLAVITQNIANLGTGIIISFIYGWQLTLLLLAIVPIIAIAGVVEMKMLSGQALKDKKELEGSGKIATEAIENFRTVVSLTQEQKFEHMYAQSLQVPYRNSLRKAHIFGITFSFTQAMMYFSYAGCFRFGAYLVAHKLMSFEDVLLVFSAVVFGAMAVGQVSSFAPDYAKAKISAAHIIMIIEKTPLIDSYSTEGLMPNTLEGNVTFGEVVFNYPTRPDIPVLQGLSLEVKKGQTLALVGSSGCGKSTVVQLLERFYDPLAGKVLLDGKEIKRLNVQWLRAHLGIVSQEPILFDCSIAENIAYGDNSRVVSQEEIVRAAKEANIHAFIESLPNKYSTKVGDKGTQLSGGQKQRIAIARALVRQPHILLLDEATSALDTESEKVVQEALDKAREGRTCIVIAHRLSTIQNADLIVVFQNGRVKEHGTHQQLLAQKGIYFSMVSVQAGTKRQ

efflux ratio at 1 hr, 1 μM	Compound
12	Cc1c(Cc2ccc(C(=O)NC3(C)CC3)cc2)cc2c(=O)n([C@H]3CCOC[C@@H]3O)cnc2c1C [Example 43, 1,5-anhydro-2,3-dideoxy-3-(7,8-dimethyl-6-(4-((1-methylcyclopropyl)carbamoyl)-benzyl)-4-oxoquinazolin-3 (4H)-yl)-L-threo-pentitol]
22	Cc1c(Cc2ccc(C(=O)NC3CC3)cc2)cc2c(=O)n([C@H]3CCOC[C@@H]3O)cnc2c1C [Example 44, 1,5-anhydro-3-(6-(4-(cyclopropylcarbamoyl)benzyl)-7,8-dimethyl-4-oxoquinazolin-3 (4H)-yl)-2,3-dideoxy-L-threo pentitol]
23	Cc1c(Cc2ccc(C(=O)NCC3CCCO3)cc2)cc2c(=O)n([C@H]3CCOC[C@@H]3O)cnc2c1C (stereo partly drawn) [Example 45, 1,5-anhydro-2,3-dideoxy-3-(7,8-dimethyl-4-oxo-6-(4-((tetrahydrofuran-2-ylmethyl)carbamoyl)benzyl)quinazolin-3 (4H)-yl)-L-threo-pentitol]
18	Cc1c(Cc2ccc(C(=O)NC3CC(F)C3)cc2)cc2c(=O)n([C@H]3CCOC[C@@H]3O)cnc2c1C (stereo partly drawn) [Example 46, 1,5-anhydro-2,3-dideoxy-3-(6-(4-((3-fluorocyclobutyl)-carbamoyl)benzyl)-7,8-dimethyl-4-oxoquinazolin-3 (4H)-yl)-L-threo-pentitol]
24	Cc1c(Cc2ccc(C(=O)NCCN3CCOCC3)cc2)cc2c(=O)n([C@H]3CCOC[C@@H]3O)cnc2c1C [Example 47, 1,5-anhydro-2,3-dideoxy-3-(7,8-dimethyl-6-(4-((2-(morpholin-4-yl)ethyl)carbamoyl)benzyl)-4-oxoquinazolin-3 (4H)-yl)-L-threo-pentitol]
24	Cc1c(Cc2ccc(C(=O)NC(C)(C)CO)cc2)cc2c(=O)n([C@H]3CCOC[C@@H]3O)cnc2c1C [Example 48, 1,5-anhydro-2,3-dideoxy-3-(6-(4-((1-hydroxy-2-methylpropan-2-yl)carbamoyl)benzyl)-7,8-dimethyl-4-oxoquinazolin-3 (4H)-yl)-L-threo-pentitol]
27	Cc1c(Cc2ccc(C(=O)NCC3CCOCC3)cc2)cc2c(=O)n([C@H]3CCOC[C@@H]3O)cnc2c1C [Example 51, 1,5-anhydro-2,3-dideoxy-3-(7,8-dimethyl-4-oxo-6-(4-((tetrahydro-2H-pyran-4-ylmethyl)carbamoyl)-benzyl)quinazolin-3 (4H)-yl)-L-threo-pentitol]
18	Cc1c(Cc2ccc(C(=O)N3CC(C(F)F)C3)cc2)cc2c(=O)n([C@H]3CCOC[C@@H]3O)cnc2c1C [Example 52, 1,5-anhydro-2,3-dideoxy-3-(6-(4-((3-(difluoromethyl)azetidin-1-yl)carbonyl)benzyl)-7,8-dimethyl-4-oxoquinazolin-3 (4H)-yl)-L-threo-pentitol]
8.3	Cc1c(Cc2ccc(C(=O)NCCC(F)(F)F)cc2)cc2c(=O)n([C@H]3CCOC[C@@H]3O)cnc2c1C [Example 53, 1,5-anhydro-2,3-dideoxy-3-(7,8-dimethyl-4-oxo-6-(4-((3,3,3-trifluoropropyl)carbamoyl)-benzyl)quinazolin-3 (4H)-yl)-L-threo-pentitol]
3.2	CNC(=O)c1ccc(Cc2cc3c(=O)n([C@H]4CCOC[C@@H]4O)nnc3c(C)c2C)cc1F [Example 55, 1,5-anhydro-2,3-dideoxy-3-(6-(3-fluoro-4-(methylcarbamoyl)benzyl)-7,8-dimethyl-4-oxo-1,2,3-benzotriazin-3 (4H)-yl)-L-threo-pentitol]
16	CNC(=O)c1ccc(Cc2cc3c(=O)n([C@H]4CCOC[C@@H]4O)cnc3cc2OC)cc1F [Example 57, 1,5-anhydro-2,3-dideoxy-3-(6-(3-fluoro-4-(methylcarbamoyl)benzyl)-7-methoxy-4-oxoquinazolin-3 (4H)-yl)-L-threo-pentitol]
35	COc1cc2ncn([C@H]3CCOC[C@@H]3O)c(=O)c2cc1Cc1ccc(-c2ccn(C)n2)nc1 [Example 63, 1,5-anhydro-2,3-dideoxy-3-(7-methoxy-6-((6-(1-methyl-1H-pyrazol-3-yl)pyridin-3-yl)methyl)-4-oxoquinazolin-3 (4H)-yl)-L-threo-pentitol]
36	COc1cc2ncn([C@H]3CCOC[C@@H]3O)c(=O)c2cc1Cc1ccc(-c2cn(C)nn2)nc1 [Example 64, 1,5-anhydro-2,3-dideoxy-3-(7-methoxy-6-((6-(1-methyl-1H-1,2,3-triazol-4-yl)pyridin-3-yl)methyl)-4-oxoquinazolin-3 (4H)-yl)-L-threo-pentitol]
5.3	Cc1c(Cc2ccc(C(=O)NCCF)c(F)c2)cc2c(=O)n([C@H]3CCOC[C@@H]3O)cnc2c1C [Example 67, 1,5-anhydro-2,3-dideoxy-3-(6-(3-fluoro-4-((2-fluoroethyl)carbamoyl)benzyl)-7,8-dimethyl-4-oxoquinazolin-3 (4H)-yl)-L-threo-pentitol]
13	Cc1c(Cc2ccc(C(=O)NCCCS(C)(=O)=O)c(F)c2)cc2c(=O)n([C@H]3CCOC[C@@H]3O)cnc2c1C [Example 70, 1,5-anhydro-2,3-dideoxy-3-(6-(3-fluoro-4-((3-(methylsulfonyl)propyl)-carbamoyl)benzyl)-7,8-dimethyl-4-oxoquinazolin-3 (4H)-yl)-L-threo-pentitol]
2.9	Cc1c(Cc2ccc(-c3cnn(C(C)(C)C)c3)nc2)cc2c(=O)n([C@H]3CCOC[C@@H]3O)cnc2c1C [Example 72, 1,5-anhydro-3-(6-((6-(1-tert-butyl-1H-pyrazol-4-yl)pyridin-3-yl)methyl)-7,8-dimethyl-4-oxoquinazolin-3(4H)-yl)-2,3-dideoxy-L-threo-pentitol]
7.1	Cc1c(Cc2ccc(-c3cnn(CC(F)(F)F)c3)nc2)cc2c(=O)n([C@H]3CCOC[C@@H]3O)cnc2c1C [Example 74, 1,5-anhydro-2,3-dideoxy-3-(7,8-dimethyl-4-oxo-6-((6-(1-(2,2,2-trifluoroethyl)-1H-pyrazol-4-yl)pyridin-3-yl)methyl)quinazolin-3(4H)-yl)-L-threo-pentitol]
56	Cc1c(Cc2ccc(C(=O)NCCN3CCCC3)c(F)c2)cc2c(=O)n([C@H]3CCOC[C@@H]3O)cnc2c1C [Example 78, 1,5-anhydro-2,3-dideoxy-3-(6-(3-fluoro-4-((2-(pyrrolidin-1-yl)ethyl)carbamoyl)benzyl)-7,8-dimethyl-4-oxoquinazolin-3 (4H)-yl)-L-threo-pentitol]
> 18	Cc1c(Cc2ccc(-c3cnn(CC(=O)N(C)C)c3)nc2)cc2c(=O)n([C@H]3CCOC[C@@H]3O)cnc2c1C [Example 82, 1,5-anhydro-2,3-dideoxy-3-(6-((6-(1-(2-(dimethylamino)-2-oxoethyl)-1H-pyrazol-4-yl)pyridin-3-yl)methyl)-7,8-dimethyl-4-oxoquinazolin-3(4H)-yl)-L-threo-pentitol]
16	Cc1c(Cc2ccc(C(=O)N[C@H]3CCOC[C@@H]3O)c(F)c2)cc2c(=O)n([C@H]3CCOC[C@@H]3O)cnc2c1C [Example 88, 2-fluoro-N-((3R,4S)-3-hydroxytetrahydro-2H-pyran-4-yl)-4-((3-((3R,4S)-3-hydroxytetrahydro-2H-pyran-4-yl)-7,8-dimethyl-4-oxo-3,4-dihydroquinazolin-6-yl)methyl)benzamide]
16	Cc1c(Cc2ccc(C(=O)NC3(C#N)CC3)c(F)c2)cc2c(=O)n([C@H]3CCOC[C@@H]3O)cnc2c1C [Example 89, 1,5-anhydro-3-(6-(4-((1-cyanocyclopropyl)carbamoyl)-3-fluorobenzyl)-7,8-dimethyl-4-oxoquinazolin-3 (4H)-yl)-2,3-dideoxy-L-threo-pentitol]
5.9	CNC(=O)c1ccc(Cc2cc3c(=O)n([C@H]4CCOC[C@@H]4O)nnc3c(C)c2C)cn1 [Example 91, 1,5-anhydro-2,3-dideoxy-3-(7,8-dimethyl-6-((6-(methylcarbamoyl)pyridin-3-yl)methyl)-4-oxo-1,2,3-benzotriazin-3 (4H)-yl)-L-threo-pentitol]
